Patent US20190309323A1, “PROMOTER WITH AN ENRICHED CYTOSINE-GUANINE DINUCLEOTIDE REGION, VECTORS, CELLULAR LINES, METHOD FOR PRODUCING RECOMBINANT PROTEIN” (UNIVERSIDAD DE CHILE, priority 2016, published 2019)

B1: RegCG: 1147 bp fragment of Cricetulus griseus β-actin promoter rich in cytosine-guanine dinucleotides, SEQ ID NO. 5 (nucleic acid)
DNA: GGAGAGGGGGTAAAAAAATGCTGCACTGTGCGGCTAGGCCGGTGAGTGAGCGGCGCGGAGCCAATCAGCGCTCGCCGTTCCGAAAGTTGCCTTTTATGGCTCGAGTGGCCGCTGTGGCGTCCTATAAAACCCGGCGGCGCAACGCGCAGCCACTGTCGAGTCCGCGTCCACCCGCGAGCACAGGCCTTTCGCAGCTCTTTCTTCGCCGCTCCACACCCGCCACCAGGTAAGCAGGGACAACAGGCCCAGCCGGCCACAGCCCTCCCGTGGGCAGTGACCGCGCTGCAGGGTCGCGGGGGACACTCGGCGCGGACACCGGGGAAGGCTGGAGGGTGGTGCCGGGCCGCGGAGCGGACACTTTCAGATCCAACTTTCAGTCCAGGGTGTAGACCCTTTACAGCCGCATTGCCACGGTGTAGACACCGGTGGACCCGCTCTGGCTCAGAGCACGCGGCTTGGGGGAACCCATTAGGGTCGCAGTGTGGGCGCTATGAGAGCCGATGCAGCTTTCGGGTGTTGAACCGTATCTGCCCACCTTGGGGGGAGGACACAAGGTCGGGAGCCAAACGCCACGATCATGCCTTGGTGGCCCATGGGTCTTTGTCTAAACCGGTTTGCCCATTTGGCTTGCCGGGCGGGCGGGCGCGGCGGGCCCGGCTCGGCCGGGTTGGGGGCTGGGTTGCCACTGCGCTTGCGCGCTCTATGGCTGGGTATTGGGGCGCGTGCACGCTGGGGAGGGAGCCCTTCCTCTTCCCCCTCTCCCAAGTTAAACTTGCGCGTGCGTATTGAGACTTGGAGCGCGGCCACCGGGGTTGGGCGAGGGCGGGGCCGTTGTCCGGAAGGGGCGGGGTCGCAGCGGCTTCGGGGCGCCTGCTCGCGCTTCCTGCTGGGTGTGGTCGCCTCCCGCGCGCGCACTAGCCGCCCGCCGGCGGGGCGAAGGCGGGGCTTGCGCCCGTTTGGGGAGGGGGCGGAGGCCTGGCTTCCTGCCGTGGGGCCGCCTCCGGACCAGCGTTTGCCTCTTATGGTAATAACGCGGCCGGCCTGGGCTTCCTTTGTCCCCTGAGTTTGGGCGCGCGCCCCCTGGCGGCCCGAGGCCGCGGCTTGCCGGAAGTGGGCAGGGCGGCAGCGGCTGCGCCTAGTGGCCCGCCAGTGACCGCGACCCTCTTTTGTGCCCTGATATAGTTCGCC
modifications: Promoter

Test system: CHO-K1 cells
Test: Transient transfection Dual-Glo luciferase assay (Luc/Ren)
Type: cell-based, Chinese hamster
Settings: FIG. 9
Description: Furthermore, the effect of addition of the promoter on luciferase activity in transient transfections was determined. CHO-K1 cells were grown to reach 90% confluence were co-transfected using Lipofectamine CD (Invitrogen. EEU U), with the normalization vector pGL4.73 (Promega. USA) expressing Renilla luciferase reniformis (Ren), under the control of SV40 promoter, and with experimental vectors Seq1-Luc (SEQ ID No.: 2), Seq4-Luc (SEQ ID No.: 35) and Seq5-Luc (SEQ ID No.: 36) expressing Photinus pyralis luciferase (Luc), under the control of the promoters studied and pGL4.17 (base vector without promoter).
CHO-K1 cells were cultured in 24-well plates in DMEM-F12 medium (Gibco) supplemented with fetal bovine serum (FBS) (HyClone) 10%, at 37° C. and 5% CO2, inoculating 300,000 cells/mL for 24 hours, or up to between 80 to 90% confluency. […] To analyze the activity of the reporter gene transfections, the “Dual-Glo Luciferase Assay System (Promega. USA)” (Promega) was used following the manufacturer's instruction, where from cell lysate its measurable sequentially luciferase activity firefly expressed as reporters vectors and activity of renilla luciferase expressed by the normalizer vector. Both activities were mediated by quantifying luminiscence read on a Lumininometer, model Luminoskan ASECNT (Thermo Electronic Corporation). […]

Molecule	relative luciferase activity in transient transfection
Seq5-Luc: reporter vector SEQ ID No. 36 under control of the minimal portion of CMV or Core CMV [reference compound]	lowest activity
B1	has transcriptional activity
